The source of these data is paper PMC8445792 (Applied Biological Chemistry, 2021).

The target in assay [1] is H1N1 NA (A/California/04/2009) (Influenza A virus (A/California/04/2009(H1N1)), UniProt C3W5S3). The assay can be described thus: biochemical. The conditions noted are these: read-out: % Inhibition ± SE H1N1 NA.
In assay [2] the target is H5N1 NA (A/Anhui/1/2005) (Influenza A virus (A/Anhui/1/2005(H5N1)), UniProt A0A0C5AGB3). In words: biochemical. The conditions noted are these: read-out: % Inhibition ± SE H5N1 NA.

For orientation: inhibition means the drop in the measured response relative to a control, in per cent. For the compound `O=C(/C=C/c1ccc(F)cc1)c1ccc(O)cc1` [Compound 1a], the results for the inhibition at 100 µg/mL in assay [1] and in assay [2] were 21 ± 7% and 23 ± 11%, respectively.
Turning to `CC(C)Oc1ccc(C(=O)/C=C/c2ccc(F)cc2)cc1` [Compound 1b], the results for the inhibition at 100 µg/mL in assay [1] and in assay [2] were 5 ± 8% and 0%, respectively.
Regarding `O=C(/C=C/c1ccc([N+](=O)[O-])cc1)c1ccc(O)cc1` [Compound 2a], the inhibition at 100 µg/mL in assay [1] came out at 16 ± 2%; in assay [2], 21 ± 2%.
`COc1cc(C(=O)/C=C/c2ccc(OCc3ccccc3)c(OC)c2)ccc1O` [Compound 2c]: in assay [1], the inhibition at 100 µg/mL stood at 1 ± 4%.
With `O=C(O)c1ccc(/C=C/C(=O)c2ccc(O)cc2)cc1` [Compound 3a], the inhibition at 100 µg/mL in assay [1] was 19 ± 2%; in assay [2] it was 27%.
As to `O=C(/C=C/c1ccc(F)cc1)c1ccc(OCc2ccccc2)cc1` [Compound 3b], the inhibition at 100 µg/mL amounted to 2 ± 4% in assay [1] and 18 ± 3% in assay [2].
For `COc1cc(/C=C/C(=O)c2ccc(O)cc2)ccc1OCc1ccccc1` [Compound 3c] the same measures were 2 ± 4% and 7 ± 8%.
On to `O=C(/C=C/c1ccc([N+](=O)[O-])cc1)c1ccc(OC2CCCC2)cc1` [Compound 4b], for which the inhibition at 100 µg/mL in assay [1] came out at 5 ± 5%; in assay [2], 15 ± 3%.
For `COc1cc(C=O)ccc1O` [Vanillin, reference compound] the same measures were 86 ± 2% and 84 ± 4%.
